Test systems include ACHN; HOP-62; SF-268; UO-31; A498; U-251; HL-60; UACC-257; SN12C; HOP-92; SF-295; NCI-H23; SNB-75; RXF 393; OVCAR-4; SR.
Common to all, as to assay: NCI tumour cell line growth inhibition, 48 h

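Briefly, cells in 96-well plates were exposed to five compound concentrations for 48 h, and endpoints were estimated by linear interpolation. GI50 = concentration required for 50% inhibition of growth.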 Activity calls are given as the source filed them. Rule as the data show it: active = GI50 up to about 1.1 µM and inactive = higher.

For the compound `Cc1nc(-n2nc(-c3ccccc3)cc2-c2ccccc2)sc1C(/C=C/c1ccc([N+](=O)[O-])cc1)=N/NC(N)=S`, the GI50 was 46.1 µM (inactive) with ACHN; 14 µM (inactive) in the experiment on HOP-62; 31.4 µM (inactive) in the experiment on SF-268; 7.41 µM (inactive) in the experiment with UO-31; > 100 µM (inactive) in the experiment on A498; 47.2 µM (inactive) in the experiment on U-251. In addition, the GI50 was 4.13 µM (inactive) in the experiment with HL-60; 78.3 µM (inactive) with UACC-257; > 100 µM (inactive) in the experiment on SN12C; 25.1 µM (inactive) in the experiment on HOP-92; 45.8 µM (inactive) in the experiment with SF-295; 27.8 µM (inactive) with NCI-H23. Besides, the GI50 in the experiment with SNB-75 is 20.8 µM (inactive); with RXF 393 it was 54.1 µM (inactive).
Turning to `O=C(CC(=O)N1N=C(c2ccccc2)C(/N=N/c2ccc(C(=O)O)cc2)C1=O)Nc1ccc(F)cc1` (stereo unspecified), the GI50 is 23.6 µM (inactive) in the experiment on ACHN; 52 µM (inactive) in the experiment with OVCAR-4; 15.9 µM (inactive) in the experiment with SF-268; 29.6 µM (inactive) with UO-31; 10.6 µM (inactive) in the experiment with A498; 22 µM (inactive) in the experiment on HL-60. Besides, the GI50 in the experiment on UACC-257 was 58.9 µM (inactive); in the experiment with SN12C, 38.9 µM (inactive); with HOP-92, 50.8 µM (inactive); with SF-295, 36.9 µM (inactive); in the experiment with NCI-H23 it was 23.4 µM (inactive); with SNB-75, 1.51 µM (inactive). Also, in the experiment with RXF 393, the GI50 was 4.01 µM (inactive).
As for `CN(/N=C\c1ccnc2ccccc12)c1ccc([N+](=O)[O-])cc1`, the GI50 in the experiment with ACHN is > 100 µM (inactive); with HOP-62 it was > 100 µM (inactive); in the experiment on SF-268, 9.51 µM (inactive); in the experiment with A498, > 100 µM (inactive); in the experiment on U-251, 8.77 µM (inactive); in the experiment on HL-60, 37.1 µM (inactive). In addition, the GI50 with UACC-257 was > 100 µM (inactive); in the experiment with SN12C, > 100 µM (inactive); in the experiment with HOP-92 it was > 100 µM (inactive); in the experiment on SF-295, 75.2 µM (inactive); in the experiment with NCI-H23, > 100 µM (inactive); with SNB-75 it was > 100 µM (inactive). Further, the GI50 with RXF 393 is > 10 µM (inactive).
`CN1c2ccccc2NC(CC(=O)O)C2CC=CN21` (stereo unspecified): the GI50 in the experiment with ACHN, in the experiment with HOP-62, with OVCAR-4, in the experiment with SF-268, in the experiment on UO-31 and in the experiment with A498 was > 100 µM (inactive) in each case. Moreover, the GI50 in the experiment on U-251, with HL-60, with UACC-257, in the experiment with SN12C, with HOP-92 and in the experiment on SF-295 was > 100 µM (inactive) in each case. In addition, the GI50 in the experiment on NCI-H23, in the experiment with SNB-75 and in the experiment on RXF 393 was > 100 µM (inactive) throughout.
With `CCOC(=O)C(C)N1C(=O)c2ccccc2S1(=O)=O` (stereo unspecified), the GI50 with HOP-62, in the experiment with OVCAR-4, with SF-268, with UO-31, in the experiment on A498 and in the experiment on U-251 was > 100 µM (inactive) throughout. Further, the GI50 in the experiment with HL-60, with UACC-257, with SN12C, in the experiment with HOP-92, with SF-295 and in the experiment on NCI-H23 was > 100 µM (inactive) each time. For the same compound, the GI50 in the experiment with SNB-75 was > 100 µM (inactive).
With `O=C(CCCCCCCCCCc1ccccc1)C1=C(O)CCCC1=O`, the GI50 with ACHN was 28.1 µM (inactive); with HOP-62, 43.7 µM (inactive); in the experiment with OVCAR-4 it was 32.7 µM (inactive); with SF-268, 17.5 µM (inactive); with UO-31, 22 µM (inactive); with U-251, 29.2 µM (inactive). Further, the GI50 in the experiment on HL-60 was 14.3 µM (inactive); in the experiment on UACC-257, 34 µM (inactive); in the experiment with SN12C, 35.2 µM (inactive); with SR, 23.8 µM (inactive); in the experiment on HOP-92, 11.3 µM (inactive); with SF-295, 22.8 µM (inactive). The GI50 in the experiment with NCI-H23 was 20.2 µM (inactive); with SNB-75, 32.6 µM (inactive); in the experiment with RXF 393 it was 25.1 µM (inactive).
As to `COc1ccc(C(O)C(c2ccc(OCc3ccccc3)cc2)c2ccc(OCc3ccccc3)cc2)cc1` (stereo unspecified), the GI50 in the experiment with ACHN, in the experiment on HOP-62, in the experiment on OVCAR-4, in the experiment on SF-268, with UO-31 and in the experiment on U-251 was > 100 µM (inactive) throughout. Also, the GI50 in the experiment on HL-60, with SN12C, with SR, in the experiment on HOP-92, in the experiment with SF-295 and in the experiment with NCI-H23 was > 100 µM (inactive) throughout. Besides, the GI50 with SNB-75 and with RXF 393 was > 100 µM (inactive) in each case.
For the compound `O=C(CCCC(=O)Nc1ccc(Cl)cc1Cl)CC(=O)c1ccc2ccccc2c1`, the GI50 with ACHN, with HOP-62, with OVCAR-4, in the experiment with SF-268, in the experiment on UO-31 and in the experiment on U-251 was > 100 µM (inactive) in each case. The GI50 is > 100 µM (inactive) with HL-60; > 100 µM (inactive) with UACC-257; > 100 µM (inactive) in the experiment with SN12C; 96.6 µM (inactive) in the experiment on HOP-92; > 100 µM (inactive) in the experiment on SF-295; > 100 µM (inactive) in the experiment with NCI-H23. The GI50 in the experiment with RXF 393 is 10.8 µM (inactive).
Consider `[N-]=[N+]=Nc1ccccc1-[n+]1noc([O-])c1Br`, for which the GI50 with ACHN, in the experiment with HOP-62, with OVCAR-4, in the experiment on SF-268, with UO-31 and in the experiment on U-251 was > 100 µM (inactive) throughout. In addition, the GI50 in the experiment on HL-60, in the experiment on UACC-257, with SN12C, in the experiment on SR, with HOP-92 and in the experiment on SF-295 was > 100 µM (inactive) in each case. For the same compound, the GI50 in the experiment with NCI-H23, with SNB-75 and with RXF 393 was > 100 µM (inactive) throughout.
As to `Cc1cccc(C(C)(C)C)c1NC(=O)CC1C(=O)Nc2ccccc2[S+]1[O-]` (stereo unspecified), the GI50 was 31.4 µM (inactive) with ACHN; > 100 µM (inactive) in the experiment on HOP-62; 18.5 µM (inactive) in the experiment with OVCAR-4; > 100 µM (inactive) in the experiment on SF-268; 41.6 µM (inactive) in the experiment on UO-31; 58.9 µM (inactive) in the experiment on U-251. The GI50 with HL-60 was 20.9 µM (inactive); in the experiment with UACC-257 it was 61.9 µM (inactive); in the experiment on SN12C, 55.8 µM (inactive); with SR, 24.9 µM (inactive); in the experiment with HOP-92 it was 68.7 µM (inactive); in the experiment with SF-295 it was 62.8 µM (inactive). Besides, the GI50 in the experiment with NCI-H23 is 26.4 µM (inactive); with SNB-75 it was 54.2 µM (inactive).
`CCC(C)CN1C(=O)NC(C)(Cc2ccccc2)C1=O` (stereo unspecified): the GI50 in the experiment with ACHN, with HOP-62, in the experiment with SF-268, with UO-31, in the experiment on U-251 and in the experiment with HL-60 was > 100 µM (inactive) in each case. In addition, the GI50 in the experiment on UACC-257, in the experiment with SN12C, in the experiment with SR, in the experiment with HOP-92, in the experiment on SF-295 and with NCI-H23 was > 100 µM (inactive) each time. Also, the GI50 in the experiment with SNB-75 and in the experiment with RXF 393 was > 100 µM (inactive) throughout.
In the case of `N=C(c1ccccc1)N(O)C1CCCCC1`, the GI50 with HOP-62, in the experiment with OVCAR-4, in the experiment with SF-268, in the experiment on UO-31, in the experiment with U-251 and with HL-60 was > 100 µM (inactive) each time. Besides, the GI50 with UACC-257, in the experiment with SN12C, in the experiment on SR, in the experiment on HOP-92, with SF-295 and in the experiment on NCI-H23 was > 100 µM (inactive) throughout. In addition, the GI50 in the experiment on SNB-75 is 81.3 µM (inactive); with RXF 393, > 100 µM (inactive).
Take `CCCCCCCC/C=C\CCCCCCCCCCCC(=O)O` [ERUCIC ACID]: the GI50 was 30.1 µM (inactive) with HOP-62; 30.8 µM (inactive) in the experiment with OVCAR-4; 52.4 µM (inactive) in the experiment on SF-268; 74 µM (inactive) with UO-31; 0.891 µM (active) in the experiment on A498; 37.9 µM (inactive) in the experiment on U-251. The GI50 with HL-60 is 19.3 µM (inactive); with UACC-257, 58.2 µM (inactive); with SN12C, 32.6 µM (inactive); with HOP-92, 38.9 µM (inactive); in the experiment with SF-295, 35.3 µM (inactive); with NCI-H23, 25.5 µM (inactive). For the same compound, the GI50 is 37 µM (inactive) with SNB-75 and 8.02 µM (inactive) in the experiment with RXF 393.
With `O=[N+]([O-])C=C1c2ccccc2-c2ccccc21`, the GI50 in the experiment on ACHN is 16.9 µM (inactive); in the experiment with HOP-62 it was 17.5 µM (inactive); with OVCAR-4, 14.2 µM (inactive); in the experiment on SF-268 it was 19.9 µM (inactive); with UO-31, 15.2 µM (inactive); with A498, 19.6 µM (inactive). Besides, the GI50 was > 10 µM (inactive) with U-251; 4.01 µM (inactive) in the experiment with HL-60; 19.1 µM (inactive) with UACC-257; 18.9 µM (inactive) in the experiment with SN12C; 4.65 µM (inactive) with SR; 19 µM (inactive) in the experiment on SF-295. Moreover, the GI50 in the experiment with NCI-H23 was 16.8 µM (inactive); in the experiment on SNB-75, 25.4 µM (inactive); in the experiment on RXF 393, 17.5 µM (inactive).

The record behind these values is ChEMBL document CHEMBL1201862, “PubChem BioAssay data set” (2004).
